These results are taken from ChEMBL document CHEMBL2021922, “Identification of a Potent and Selective Cannabinoid CB1 Receptor Antagonist from Auxarthron reticulatum” (ACS Med Chem Lett, 2011).

The source made the active and inactive calls. The rule behind the calls is not given here.

For experiment [1], the target named is Cannabinoid receptor 1 (Homo sapiens, UniProt P21554). The experiment is described as follows: Displacement of [3H]CP55940 from human recombinant CB1 receptor expressed in CHO cells after 2 hrs by liquid scintillation counting. In kind it is cell-based.
Experiment [2] deals with Cannabinoid receptor 2 (Homo sapiens) (UniProt P34972). The experiment is described as follows: Displacement of [3H]CP55940 from human recombinant CB2 receptor expressed in CHO cells at 10 uM after 2 hrs by liquid scintillation counting. It counts as cell-based.
Chain of Cannabinoid receptor 2 (Homo sapiens) (P34972 whole entry): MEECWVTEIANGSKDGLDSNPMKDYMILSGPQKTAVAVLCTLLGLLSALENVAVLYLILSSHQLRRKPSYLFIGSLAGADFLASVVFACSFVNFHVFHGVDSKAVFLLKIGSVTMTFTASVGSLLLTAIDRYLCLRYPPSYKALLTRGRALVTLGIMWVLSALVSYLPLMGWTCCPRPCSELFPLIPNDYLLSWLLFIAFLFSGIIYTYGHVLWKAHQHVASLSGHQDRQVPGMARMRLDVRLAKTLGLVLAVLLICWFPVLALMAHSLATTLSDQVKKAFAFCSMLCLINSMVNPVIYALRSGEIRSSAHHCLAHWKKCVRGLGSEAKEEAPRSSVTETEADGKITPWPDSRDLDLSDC

Chain of Cannabinoid receptor 1 (P21554 whole entry): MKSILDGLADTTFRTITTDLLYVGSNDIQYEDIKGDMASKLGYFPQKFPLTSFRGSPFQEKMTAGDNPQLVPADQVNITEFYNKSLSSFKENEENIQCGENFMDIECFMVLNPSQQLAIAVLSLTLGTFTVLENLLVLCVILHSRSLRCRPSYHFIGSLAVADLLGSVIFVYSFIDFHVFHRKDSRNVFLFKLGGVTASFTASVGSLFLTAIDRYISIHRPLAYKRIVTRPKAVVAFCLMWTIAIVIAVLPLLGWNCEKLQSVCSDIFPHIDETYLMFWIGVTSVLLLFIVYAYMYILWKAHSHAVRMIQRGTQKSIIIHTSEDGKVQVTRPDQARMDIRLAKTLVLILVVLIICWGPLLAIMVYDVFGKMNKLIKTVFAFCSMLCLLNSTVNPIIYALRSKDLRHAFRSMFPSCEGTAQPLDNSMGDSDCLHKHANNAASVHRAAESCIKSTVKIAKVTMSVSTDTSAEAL

As to `C=CC(C)(C)[C@@]12C[C@H]3C(=O)N4[C@@H](C[C@@]5(C(C)(C)C=C)c6ccccc6N[C@@H]45)C(=O)N3[C@@H]1Nc1ccccc12` [AMAUROMINE], the Ki in experiment [1] worked out at 178 nM. Also, the result in experiment [2] was inactive.
